Consider 16 compounds from patent publication US11986532B2 (Arvinas Operations, Inc., priority 2021, dated 2024).

Molecules are shown by their SMILES. Where two headings read alike, the source gives them in different places. Some results are limits rather than exact numbers.

In the test the target is T1, BCL6 (Homo sapiens, UniProt P41182).
T1 construct: endogenous in cells; host or cells: T47D breast cancer epithelial cells
Description: Immunofluorescence protocol for high content imaging of BCL6 (degradation) in T47D cells, 3 days compound treatment. It is filed as cell-based. Conditions: for DC50: read-out: Mean DC50 (nM)* category; for Dmax: read-out: Mean Dmax (%)** category. The essentials: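 Cells are seeded to reach ~70-90% confluence at endpoint, then dosed next day with compound at a final top concentration of 0.1 or 1 μM (11 points, 3-fold). After 3 days, BCL6 is detected by immunofluorescence and quantified by high-content imaging.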

Where [1] appears, read: T47D cells, 3 days compound treatment.

For `CNC(=O)COc1cc2cc(Nc3nc(N4CCC5(CC4)CC(C(C)(C)N4CCN(c6cccc7c6CN(C6CCC(=O)NC6=O)C7=O)CC4)C5)ncc3Cl)ccc2n(C(C)C)c1=O` (centres unmarked) [Compound 34, 2-{[6-({5-chloro-2-[2-(2-{4-[2-(2,6-dioxopiperidin-3-yl)-1-oxo-2,3-dihydro-1H-isoindol-4-yl]piperazin-1-yl}propan-2-yl)-7-azaspiro[3.5]nonan-7-yl]pyrimidin-4-yl}amino)-2-oxo-1-(propan-2-yl)-1,2-dihydroquinolin-3-yl]oxy}-N-methylacetamide], under setting [1], the DC50 was less than 10 nM and the Dmax fell in the range of 50 to 70%.
`CNC(=O)COc1cc2cc(Nc3nc(N4CCC(O[C@H]5C[C@H](N6CCN(c7ccc8c(c7F)CN(C7CCC(=O)NC7=O)C8=O)C[C@@H]6C)C5)CC4)ncc3Cl)ccc2n(C(C)C)c1=O` (some centres unmarked) [Compound 178]: under setting [1], the DC50 is less than 10 nM and the Dmax was no less than 70%.
For the compound `CNC(=O)COc1cc2c(F)c(Nc3nc(N4CCC(CN5CCC6(CN(c7ccc8c(c7F)CN(C7CCC(=O)NC7=O)C8=O)C6)C(F)(F)C5)CC4)ncc3Cl)ccc2n(C(C)C)c1=O` (centres unmarked) [Compound 376, 2-{[6-({5-chloro-2-[4-({2-[2-(2,6-dioxopiperidin-3-yl)-4-fluoro-1-oxo-2,3-dihydro-1H-isoindol-5-yl]-5,5-difluoro-2,7-diazaspiro[3.5]nonan-7-yl}methyl)piperidin-1-yl]pyrimidin-4-yl}amino)-5-fluoro-2-oxo-1-(propan-2-yl)-1,2-dihydroquinolin-3-yl]oxy}-N-methylacetamide], the DC50 was less than 10 nM. In addition, the Dmax (T47D) was no less than 70%.
The matching figures for `CNC(=O)COc1cc2cc(Nc3nc(N4CCC(O[C@H]5C[C@H](N6CCC(c7ccc8c(c7F)CN(C7CCC(=O)NC7=O)C8=O)CC6)C5)CC4)ncc3Cl)ccc2n(CC(C)C)c1=O` (some centres unmarked) [Compound 425, 2-({6-[(5-chloro-2-{4-[(1r,3r)-3-{4-[2-(2,6-dioxopiperidin-3-yl)-4-fluoro-1-oxo-2,3-dihydro-1H-isoindol-5-yl]piperidin-1-yl}cyclobutoxy]piperidin-1-yl}pyrimidin-4-yl)amino]-1-(2-methylpropyl)-2-oxo-1,2-dihydroquinolin-3-yl}oxy)-N-methylacetamide]: less than 10 nM and no less than 70%.
Turning to `CNC(=O)COc1cc2cc(Nc3nc(N4CCC(O[C@H]5CC[C@H](Oc6ccc7c(c6)C(=O)N(C6CCC(=O)NC6=O)C7=O)CC5)CC4)ncc3Cl)ccc2n(C(C)C)c1=O` (some centres unmarked) [Compound 30, 2-[(6-{[5-chloro-2-(4-{[(1r,4r)-4-{[2-(2,6-dioxopiperidin-3-yl)-1,3-dioxo-2,3-dihydro-1H-isoindol-5-yl]oxy}cyclohexyl]oxy}piperidin-1-yl)pyrimidin-4-yl]amino}-2-oxo-1-(propan-2-yl)-1,2-dihydroquinolin-3-yl)oxy]-N-methylacetamide], under setting [1], the DC50 was 10 to 50 nM and the Dmax is 50 to 70%.
`CNC(=O)COc1cc2cc(Nc3nc(N4CCC(OC5CCC6(CC5)CN(c5c(F)cc7c(c5F)CN(C5CCC(=O)NC5=O)C7=O)C6)CC4)ncc3Cl)ccc2n(C(C)C)c1=O` (centres unmarked) [Compound 324, 2-{[6-({5-chloro-2-[4-({2-[2-(2,6-dioxopiperidin-3-yl)-4,6-difluoro-1-oxo-2,3-dihydro-1H-isoindol-5-yl]-2-azaspiro[3.5]nonan-7-yl}oxy)piperidin-1-yl]pyrimidin-4-yl}amino)-2-oxo-1-(propan-2-yl)-1,2-dihydroquinolin-3-yl]oxy}-N-methylacetamide]: the DC50 was less than 10 nM. Further, the maximal degradation (Dmax) (T47D) is 50 to 70%.
As to `CNC(=O)COc1cc2cc(Nc3nc(N4CCC(OC5CCC6(CC5)CN(c5c(F)ccc7c5CN(C5CCC(=O)NC5=O)C7=O)C6)CC4)ncc3Cl)ccc2n(C(C)C)c1=O` (centres unmarked) [Compound 298, 2-{[6-({5-chloro-2-[4-({2-[2-(2,6-dioxopiperidin-3-yl)-5-fluoro-1-oxo-2,3-dihydro-1H-isoindol-4-yl]-2-azaspiro[3.5]nonan-7-yl}oxy)piperidin-1-yl]pyrimidin-4-yl}amino)-2-oxo-1-(propan-2-yl)-1,2-dihydroquinolin-3-yl]oxy}-N-methylacetamide], the DC50 is less than 10 nM. The Dmax (T47D) lay in the range of 50 to 70%.
Taken in the same sequence, the figures for `CCC(C)n1c(=O)c(OCC(=O)NC)cc2cc(Nc3nc(N4CCC(O[C@H]5C[C@H](N6CCC(c7ccc8c(c7F)CN(C7CCC(=O)NC7=O)C8=O)CC6)C5)CC4)ncc3Cl)ccc21` (some centres unmarked) [Compound 424, 2-{[1-(butan-2-yl)-6-[(5-chloro-2-{4-[(1r,3r)-3-{4-[2-(2,6-dioxopiperidin-3-yl)-4-fluoro-1-oxo-2,3-dihydro-1H-isoindol-5-yl]piperidin-1-yl}cyclobutoxy]piperidin-1-yl}pyrimidin-4-yl)amino]-2-oxo-1,2-dihydroquinolin-3-yl]oxy}-N-methylacetamide] were less than 10 nM and no less than 70%.
Take `CNC(=O)COc1cc2cc(Nc3nc(N4CCC5(CCN(CC6CCN(c7ccc8c(c7)CN(C7CCC(=O)NC7=O)C8=O)CC6)C5)C4)ncc3Cl)ccc2n(C(C)C)c1=O` (centres unmarked) [Compound 3, 2-{[6-({5-chloro-2-[7-({1-[2-(2,6-dioxopiperidin-3-yl)-1-oxo-2,3-dihydro-1H-isoindol-5-yl]piperidin-4-yl}methyl)-2,7-diazaspiro[4.4]nonan-2-yl]pyrimidin-4-yl}amino)-2-oxo-1-(propan-2-yl)-1,2-dihydroquinolin-3-yl]oxy}-N-methylacetamide]: under setting [1], the half-maximal degradation concentration (DC50) was less than 10 nM and the Dmax was 50 to 70%.
For `CNC(=O)COc1cc2cc(Nc3nc(N4CCC(O[C@H]5C[C@H](N6CC7(CN(c8ccc9c(c8)CN(C8CCC(=O)NC8=O)C9=O)C7)C6)C5)CC4)ncc3Cl)ccc2n(C(C)C)c1=O` (some centres unmarked) [Compound 353, 2-({6-[(5-chloro-2-{4-[(1r,3r)-3-{6-[2-(2,6-dioxopiperidin-3-yl)-1-oxo-2,3-dihydro-1H-isoindol-5-yl]-2,6-diazaspiro [3.3]heptan-2-yl}cyclobutoxy]piperidin-1-yl}pyrimidin-4-yl)amino]-2-oxo-1-(propan-2-yl)-1,2-dihydroquinolin-3-yl}oxy)-N-methylacetamide], the DC50 is less than 10 nM. Moreover, the Dmax (T47D) is no less than 70%.
The matching figures for `CNC(=O)COc1cc2cc(Nc3nc(N4CCC(O[C@H]5C[C@H](N6CCN(c7ccc8c(c7F)CN([C@H]7CCC(=O)NC7=O)C8=O)CC6)C5)CC4)ncc3Cl)ccc2n(C(C)C)c1=O` [Compound 388, 2-({6-[(5-chloro-2-{4-[(1r,3r)-3-(4-{2-[(3S)-2,6-dioxopiperidin-3-yl]-4-fluoro-1-oxo-2,3-dihydro-1H-isoindol-5-yl}piperazin-1-yl)cyclobutoxy]piperidin-1-yl}pyrimidin-4-yl)amino]-2-oxo-1-(propan-2-yl)-1,2-dihydroquinolin-3-yl}oxy)-N-methylacetamide]: less than 10 nM and 50 to 70%.
Regarding `CNC(=O)COc1cc2cc(Nc3nc(N4CCC(CN5CCC6(CCN(c7ccc8c(c7)CN(C7CCC(=O)NC7=O)C8=O)C6)C5=O)CC4)ncc3Cl)ccc2n(C(C)C)c1=O` (centres unmarked) [Compound 60, 2-{[6-({5-chloro-2-[4-({7-[2-(2,6-dioxopiperidin-3-yl)-1-oxo-2,3-dihydro-1H-isoindol-5-yl]-1-oxo-2,7-diazaspiro[4.4]nonan-2-yl}methyl)piperidin-1-yl]pyrimidin-4-yl}amino)-2-oxo-1-(propan-2-yl)-1,2-dihydroquinolin-3-yl]oxy}-N-methylacetamide], under setting [1], the DC50 is less than 10 nM and the maximal degradation (Dmax) lay within 50 to 70%.
On to `CNC(=O)COc1cc2cc(Nc3nc(N4CCC(O[C@H]5C[C@H](N6CCC7(CCCN(c8ccc9c(c8)CN(C8CCC(=O)NC8=O)C9=O)C7)C6)C5)CC4)ncc3Cl)ccc2n(C(C)C)c1=O` (some centres unmarked) [Compound 354, 2-({6-[(5-chloro-2-{4-[(1r,3r)-3-{7-[2-(2,6-dioxopiperidin-3-yl)-1-oxo-2,3-dihydro-1H-isoindol-5-yl]-2,7-diazaspiro[4.5]decan-2-yl}cyclobutoxy]piperidin-1-yl}pyrimidin-4-yl)amino]-2-oxo-1-(propan-2-yl)-1,2-dihydroquinolin-3-yl}oxy)-N-methylacetamide], for which the 50% degradation concentration (DC50) was less than 10 nM. In addition, for the setting “T47D”, the greatest degradation seen (Dmax) was 50 to 70%.
Regarding `CNC(=O)COc1cc2cc(Nc3nc(N4CCC5(CC4)CC(C(=O)N4CCN(c6cccc7c6CN(C6CCC(=O)NC6=O)C7=O)CC4)C5)ncc3Cl)ccc2n(C(C)C)c1=O` (centres unmarked) [Compound 27, 2-[(6-{[5-chloro-2-(2-{4-[2-(2,6-dioxopiperidin-3-yl)-1-oxo-2,3-dihydro-1H-isoindol-4-yl]piperazine-1-carbonyl}-7-azaspiro [3.5]nonan-7-yl)pyrimidin-4-yl]amino}-2-oxo-1-(propan-2-yl)-1,2-dihydroquinolin-3-yl)oxy]-N-methylacetamide], under setting [1], the DC50 was less than 10 nM and the Dmax is 50 to 70%.
`CNC(=O)COc1cc2cc(Nc3nc(N4CCC(CN5CCC6(CN(c7ccc8c(c7)C(=O)N(C7CCC(=O)NC7=O)C8=O)C6)C(F)(F)C5)CC4)ncc3Cl)ccc2n(CCOC)c1=O` (centres unmarked) [Compound 126, 2-{[6-({5-chloro-2-[4-({2-[2-(2,6-dioxopiperidin-3-yl)-1,3-dioxo-2,3-dihydro-1H-isoindol-5-yl]-5,5-difluoro-2,7-diazaspiro[3.5]nonan-7-yl}methyl)piperidin-1-yl]pyrimidin-4-yl}amino)-1-(2-methoxyethyl)-2-oxo-1,2-dihydroquinolin-3-yl]oxy}-N-methylacetamide]: under setting [1], the DC50 was less than 10 nM and the Dmax was less than 50%.
For the compound `CNC(=O)COc1cc2cc(Nc3nc(N4CCN(C[C@H]5C[C@@H](N6CCC(c7cccc8c7C(=O)N(C7CCC(=O)NC7=O)C8=O)CC6)C5)CC4)ncc3Cl)ccc2n(C(C)C)c1=O` (some centres unmarked) [Compound 23, 2-[(6-{[5-chloro-2-(4-{[(1s,3s)-3-{4-[2-(2,6-dioxopiperidin-3-yl)-1,3-dioxo-2,3-dihydro-1H-isoindol-4-yl]piperidin-1-yl}cyclobutyl]methyl}piperazin-1-yl)pyrimidin-4-yl]amino}-2-oxo-1-(propan-2-yl)-1,2-dihydroquinolin-3-yl)oxy]-N-methylacetamide], under setting [1], the DC50 lay within 50 to 100 nM and the Dmax was less than 50%.

A word on the DC50: it is the concentration at which degradation of the target reaches its halfway point. What is called Dmax is the greatest extent of degradation seen.
